# Data: US8906889B2, “C-3 cycloalkenyl triterpenoids with HIV maturation inhibitory activity” (priority 2012, dated 2014)
# Structures can show the parent of a compound that is named as a salt.
# System: recombinant NL4-3 virus (Renilla luciferase, Gag P373S)
# Assay: HIV cell culture assay (luciferase reporter, MT-2 cells)
# Format: cell-based
# Settings: Renilla, NL43, MT-2 cells infected for 4-5 days with NLRluc recombinants; luciferase activity
# Protocol: MT-2 cells and 293T cells were obtained from the NIH AIDS Research and Reference Reagent Program. MT-2 cells were propagated in RPMI 1640 media supplemented with 10% heat inactivated fetal bovine serum, […]. The 293T cells were propagated in DMEM media supplemented with 10% heat inactivated fetal bovine serum (FBS), 100 units/ml penicillin G and 100 μg/ml streptomycin. The proviral DNA clone of NL4-3 was obtained from the NIH AIDS Research and Reference Reagent Program. A recombinant NL4-3 virus, in which a section of the nef gene from NL4-3 was replaced with the Renilla luciferase gene, was used as a reference virus. In addition, residue Gag P373 was converted to P373S. Briefly, the recombinant virus was prepared by transfection of the altered proviral clone of NL4-3. Transfections were performed in 293T cells using LipofectAMINE PLUS from Invitrogen (Carlsbad, Calif.), according to manufacturer's instruction. The virus was titered in MT-2 cells using luciferase enzyme activity as a marker. Luciferase was quantitated using the Dual Luciferase kit from Promega (Madison, Wis.), with modifications to the manufacturer's protocol. The diluted Passive Lysis solution was pre-mixed with the re-suspended Luciferase Assay Reagent and the re-suspended Stop & Glo Substrate (2:1:1 ratio). Fifty (50) μL of the mixture was added to each aspirated well on assay plates and luciferase activity was measured immediately on a Wallac TriLux (Perkin-Elmer). Antiviral activities of inhibitors toward the recombinant virus were quantified by measuring luciferase activity in cells infected for 4-5 days with NLRluc recombinants in the presence serial dilutions of the inhibitor.
row,SMILES,EC50 [nM]
1,"C=C(C)[C@@H]1CC[C@]2(NCCN3CCS(=O)(=O)CC3)CC[C@]3(C)[C@H](CC[C@@H]4[C@@]5(C)CC=C(C6=CCC(C(=O)O)(C(=O)O)CC6)C(C)(C)[C@@H]5CC[C@]43C)[C@@H]12 [Example 7, 4-((1R,3aS,5aR,5bR,7aR,11aS,11bR,13aR,13bR)-3a-((2-(1,1-dioxidothiomorpholino)ethyl)amino)-5a,5b,8,8,11a-pentamethyl-1-(prop-1-en-2-yl)-2,3,3a,4,5,5a,5b,6,7,7a,8,11,11a,11b,12,13,13a,13b-octadecahydro-1H-cyclopenta[a]chrysen-9-yl)cyclohex-3-ene-1,1-dicarboxylic acid, TFA]",100
2,"CC(C)[C@@H]1CC[C@]2(NCCN3CCS(=O)(=O)CC3)CC[C@]3(C)[C@H](CC[C@@H]4[C@@]5(C)CC=C(C6=CCC(C(=O)O)CC6)C(C)(C)[C@@H]5CC[C@]43C)[C@@H]12 (stereo partly drawn) [Example 8, 4-((1S,3aS,5aR,5bR,7aR,11aS,11bR,13aR,13bR)-3a-((2-(1,1-dioxidothiomorpholino)ethyl)amino)-1-isopropyl-5a,5b,8,8,11a-pentamethyl-2,3,3a,4,5,5a,5b,6,7,7a,8,11,11a,11b,12,13,13a,13b-octadecahydro-1H-cyclopenta[a]chrysen-9-yl)cyclohex-3-enecarboxylic acid, TFA]",1.01
3,"C=C(C)[C@@H]1CC[C@]2(NCCN3CCS(=O)(=O)CC3)CC[C@]3(C)[C@H](CC[C@@H]4[C@@]5(C)CC=C(C6=CCC(O)(C(=O)O)CC6)C(C)(C)[C@@H]5CC[C@]43C)[C@@H]12 (stereo partly drawn) [Example 11, 4-((1R,3aS,5aR,5bR,7aR,11aS,11bR,13aR,13bR)-3a-((2-(1,1-dioxidothiomorpholino)ethyl)amino)-5a,5b,8,8,11a-pentamethyl-1-(prop-1-en-2-yl)-2,3,3a,4,5,5a,5b,6,7,7a,8,11,11a,11b,12,13,13a,13b-octadecahydro-1H-cyclopenta[a]chrysen-9-yl)-1-hydroxycyclohex-3-enecarboxylic acid, TFA]",1.99
4,"C=C(C)[C@@H]1CC[C@]2(NCCN3CCN(S(C)(=O)=O)CC3)CC[C@]3(C)[C@H](CC[C@@H]4[C@@]5(C)CC=C(C6=CCC(C(=O)O)CC6)C(C)(C)[C@@H]5CC[C@]43C)[C@@H]12 (stereo partly drawn) [Example 12, 4-((1R,3aS,5aR,5bR,7aR,11aS,11bR,13aR,13bR)-5a,5b,8,8,11a-pentamethyl-3a-((2-(4-(methylsulfonyl)piperazin-1-yl)ethyl)amino)-1-(prop-1-en-2-yl)-2,3,3a,4,5,5a,5b,6,7,7a,8,11,11a,11b,12,13,13a,13b-octadecahydro-1H-cyclopenta[a]chrysen-9-yl)cyclohex-3-enecarboxylic acid, TFA]",3.03
5,"C=C(C)[C@@H]1CC[C@]2(NCCN3CCC(S(C)(=O)=O)CC3)CC[C@]3(C)[C@H](CC[C@@H]4[C@@]5(C)CC=C(C6=CCC(C(=O)O)CC6)C(C)(C)[C@@H]5CC[C@]43C)[C@@H]12 (stereo partly drawn) [Example 13, 4-((1R,3aS,5aR,5bR,7aR,11aS,11bR,13aR,13bR)-5a,5b,8,8,11a-pentamethyl-3a-((2-(4-(methylsulfonyl)piperidin-1-yl)ethyl)amino)-1-(prop-1-en-2-yl)-2,3,3a,4,5,5a,5b,6,7,7a,8,11,11a,11b,12,13,13a,13b-octadecahydro-1H-cyclopenta[a]chrysen-9-yl)cyclohex-3-enecarboxylic acid, TFA]",0.975
6,"C=C(C)[C@@H]1CC[C@]2(NCCN3CCOCC3)CC[C@]3(C)[C@H](CC[C@@H]4[C@@]5(C)CC=C(C6=CCC(C(=O)O)CC6)C(C)(C)[C@@H]5CC[C@]43C)[C@@H]12 (stereo partly drawn) [Example 14, 4-((1R,3aS,5aR,5bR,7aR,11aS,11bR,13aR,13bR)-5a,5b,8,8,11a-pentamethyl-3a-((2-morpholinoethyl)amino)-1-(prop-1-en-2-yl)-2,3,3a,4,5,5a,5b,6,7,7a,8,11,11a,11b,12,13,13a,13b-octadecahydro-1H-cyclopenta[a]chrysen-9-yl)cyclohex-3-enecarboxylic acid, TFA]",5.61
7,"C=C(C)[C@@H]1CC[C@]2(NCCN3CCC(S(C)(=O)=O)CC3)CC[C@]3(C)[C@H](CC[C@@H]4[C@@]5(C)CC=C(C6=CC[C@H](C(=O)O)CC6)C(C)(C)[C@@H]5CC[C@]43C)[C@@H]12 [Example 15, (R)-4-((1R,3aS,5aR,5bR,7aR,11aS,11bR,13aR,13bR)-5a,5b,8,8,11a-pentamethyl-3a-((2-(4-(methylsulfonyl)piperidin-1-yl)ethyl)amino)-1-(prop-1-en-2-yl)-2,3,3a,4,5,5a,5b,6,7,7a,8,11,11a,11b,12,13,13a,13b-octadecahydro-1H-cyclopenta[a]chrysen-9-yl)cyclohex-3-enecarboxylic acid, TFA]",1.36
8,"C=C(C)[C@@H]1CC[C@]2(NCCN3CCC(S(C)(=O)=O)CC3)CC[C@]3(C)[C@H](CC[C@@H]4[C@@]5(C)CC=C(C6=CC[C@@H](C(=O)O)CC6)C(C)(C)[C@@H]5CC[C@]43C)[C@@H]12 [Example 16, (S)-4-((1R,3aS,5aR,5bR,7aR,11aS,11bR,13aR,13bR)-5a,5b,8,8,11a-pentamethyl-3a-((2-(4-(methylsulfonyl)piperidin-1-yl)ethyl)amino)-1-(prop-1-en-2-yl)-2,3,3a,4,5,5a,5b,6,7,7a,8,11,11a,11b,12,13,13a,13b-octadecahydro-1H-cyclopenta[a]chrysen-9-yl)cyclohex-3-enecarboxylic acid, TFA]",3.05
9,"C=C(C)[C@@H]1CC[C@]2(N)CC[C@]3(C)[C@H](CC[C@@H]4[C@@]5(C)CC=C(C6=CCC(C(=O)O)CC6)C(C)(C)[C@@H]5CC[C@]43C)[C@@H]12 (stereo partly drawn) [Example 17, 4-((1R,3aS,5aR,5bR,7aR,11aS,11bR,13aR,13bR)-3a-amino-5a,5b,8,8,11a-pentamethyl-1-(prop-1-en-2-yl)-2,3,3a,4,5,5a,5b,6,7,7a,8,11,11a,11b,12,13,13a,13b-octadecahydro-1H-cyclopenta[a]chrysen-9-yl)cyclohex-3-enecarboxylic acid, HCl]",0.877
10,"C=C(C)[C@@H]1CC[C@]2(NCCO)CC[C@]3(C)[C@H](CC[C@@H]4[C@@]5(C)CC=C(C6=CCC(C(=O)O)CC6)C(C)(C)[C@@H]5CC[C@]43C)[C@@H]12 (stereo partly drawn) [Example 18, 4-((1R,3aS,5aR,5bR,7aR,11aS,11bR,13aR,13bR)-3a-((2-hydroxyethyl)amino)-5a,5b,8,8,11a-pentamethyl-1-(prop-1-en-2-yl)-2,3,3a,4,5,5a,5b,6,7,7a,8,11,11a,11b,12,13,13a,13b-octadecahydro-1H-cyclopenta[a]chrysen-9-yl)cyclohex-3-enecarboxylic acid, TFA]",1.38
11,"C=C(C)[C@@H]1CC[C@]2(NCCO)CC[C@]3(C)[C@H](CC[C@@H]4[C@@]5(C)CC=C(C6=CC[C@H](C(=O)O)CC6)C(C)(C)[C@@H]5CC[C@]43C)[C@@H]12 [Example 19, (R)-4-((1R,3aS,5aR,5bR,7aR,11aS,11bR,13aR,13bR)-3a-((2-hydroxyethyl)amino)-5a,5b,8,8,11a-pentamethyl-1-(prop-1-en-2-yl)-2,3,3a,4,5,5a,5b,6,7,7a,8,11,11a,11b,12,13,13a,13b-octadecahydro-1H-cyclopenta[a]chrysen-9-yl)cyclohex-3-enecarboxylic acid, TFA]",1.14
12,"C=C(C)[C@@H]1CC[C@]2(NCCO)CC[C@]3(C)[C@H](CC[C@@H]4[C@@]5(C)CC=C(C6=CC[C@@H](C(=O)O)CC6)C(C)(C)[C@@H]5CC[C@]43C)[C@@H]12 [Example 20, (S)-4-((1R,3aS,5aR,5bR,7aR,11aS,11bR,13aR,13bR)-3a-((2-hydroxyethyl)amino)-5a,5b,8,8,11a-pentamethyl-1-(prop-1-en-2-yl)-2,3,3a,4,5,5a,5b,6,7,7a,8,11,11a,11b,12,13,13a,13b-octadecahydro-1H-cyclopenta[a]chrysen-9-yl)cyclohex-3-enecarboxylic acid, TFA]",1.57
13,"C=C(C)[C@@H]1CC[C@]2(NCCN3CCS(=O)(=O)CC3)CC[C@]3(C)[C@H](CC[C@@H]4[C@@]5(C)CC=C(C6=CCC(C(=O)NS(C)(=O)=O)CC6)C(C)(C)[C@@H]5CC[C@]43C)[C@@H]12 (stereo partly drawn) [Example 21, 4-((1R,3aS,5aR,5bR,7aR,11aS,11bR,13aR,13bR)-3a-((2-(1,1-dioxidothiomorpholino)ethyl)amino)-5a,5b,8,8,11a-pentamethyl-1-(prop-1-en-2-yl)-2,3,3a,4,5,5a,5b,6,7,7a,8,11,11a,11b,12,13,13a,13b-octadecahydro-1H-cyclopenta[a]chrysen-9-yl)-N-(methylsulfonyl)cyclohex-3-enecarboxamide, TFA]",1.8
